In PubChem BioAssay (NCI):
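Protocol summary: plate cells (96-well), add compound at 5 concentrations, incubate 48 h, interpolate endpoints linearly. The concentration for 50% growth inhibition is given as GI50. The concentration for full growth arrest is given as TGI.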

Experiments:
Assay in all cases: DTP human tumour cell line panel, 48 h
786-0 renal = system: 786-0 renal
ACHN renal = system: ACHN renal
HS 578T breast = system: HS 578T breast
K-562 leukemia = system: K-562 leukemia
MDA-MB-231 breast = system: MDA-MB-231 breast
MDA-N = system: MDA-N
MOLT-4 leukemia = system: MOLT-4 leukemia
PC-3 prostate = system: PC-3 prostate
SF-268 CNS = system: SF-268 CNS
T-47D breast = system: T-47D breast
SF-539 CNS = system: SF-539 CNS

Row | SMILES | TGI (786-0 renal) | TGI (ACHN renal) | TGI (HS 578T breast) | TGI (K-562 leukemia) | TGI (MDA-MB-231 breast) | TGI (MDA-N) | TGI (MOLT-4 leukemia) | TGI (PC-3 prostate) | TGI (SF-268 CNS) | TGI (T-47D breast) | TGI (SF-539 CNS) | GI50 (ACHN renal) | GI50 (HS 578T breast) | GI50 (K-562 leukemia) | GI50 (MDA-MB-231 breast) | GI50 (MOLT-4 leukemia) | GI50 (PC-3 prostate) | GI50 (SF-268 CNS) | GI50 (SF-539 CNS) | GI50 (T-47D breast)
1 | O=C(O)CC(C(=O)O)C1c2ccccc2-c2ccccc21 (configuration not stated) | > 100 µM | > 100 µM | > 100 µM | > 100 µM | > 100 µM | > 100 µM | > 100 µM | > 100 µM | > 100 µM | > 100 µM | – | – | – | – | – | – | – | – | – | –
2 | OC(Cc1ccccc1)(Cc1ccccc1)c1ccccc1 | 29.6 µM | 33.5 µM | – | > 100 µM | 33.8 µM | 29.2 µM | > 100 µM | 34.4 µM | 29.8 µM | > 100 µM | – | – | – | – | – | – | – | – | – | –
3 | Nc1cc(S(=O)(=O)O)cc2cc(S(=O)(=O)O)c(N=Nc3ccc(-c4ccc(N=Nc5c(S(=O)(=O)O)cc6cc(S(=O)(=O)O)cc(N)c6c5O)cc4)cc3)c(O)c12 | – | – | – | > 100 µM | – | – | > 100 µM | – | > 100 µM | – | > 100 µM | – | – | – | – | – | – | – | – | –
4 | O=Nc1ccc(O)c2ncccc12 | 14.7 µM | 14.5 µM | 3.66 µM | > 100 µM | 57.3 µM | 6.01 µM | > 100 µM | 29.8 µM | 17.2 µM | 33.1 µM | 4.96 µM | – | – | – | – | – | – | – | – | –
5 | CCN(CC)C(=S)SC(=S)N(CC)CC | 56.3 µM | > 100 µM | > 100 µM | > 100 µM | > 92.1 µM | > 100 µM | > 72.8 µM | > 100 µM | > 100 µM | > 100 µM | > 100 µM | – | – | – | – | – | – | – | – | –
6 | c1ccc(-n2cnnc2-c2nsc3ccccc23)cc1 | – | > 100 µM | – | > 100 µM | – | – | > 100 µM | – | > 100 µM | – | > 100 µM | – | – | – | – | – | – | – | – | –
7 | COc1ccc(-c2nn(-c3ccc(NC(=O)Nc4ccc(Cl)c(Cl)c4)cc3)cc2-c2ccncc2)cc1Cl | – | > 100 µM | 7.63 µM | > 100 µM | 4.33 µM | – | > 100 µM | 14.4 µM | > 100 µM | > 100 µM | > 100 µM | 2.27 µM | 1.42 µM | 1.43 µM | 1.5 µM | 1.89 µM | 1.29 µM | 4.19 µM | 2.82 µM | 3.24 µM
8 | CC(C)=CCc1c(O)ccc2c1OC1c3ccc(O)c(CC=C(C)C)c3OCC21 (configuration not stated) | – | – | – | 25.3 µM | – | – | 16 µM | – | 27 µM | – | 23.9 µM | – | – | – | – | – | – | – | – | –
9 | C[C@H](C(=O)N[C@@H](Cc1ccc(-c2ccccc2)cc1)C(=O)NC1CC(C)(C)N(C)C(C)(C)C1)c1ccc(-c2ccccc2)c(F)c1 | – | 3.05 µM | – | – | 3.02 µM | – | – | – | – | – | 3.03 µM | 1.62 µM | – | – | 1.49 µM | – | – | – | 1.56 µM | –
10 | COc1cc(C(C)(C)C)cc(OC)c1C(O)(c1c(OC)cc(C(C)(C)C)cc1OC)c1c(OC)cc(C(C)(C)C)cc1OC | – | 0.987 µM | – | – | – | – | – | – | – | – | 1.22 µM | 0.284 µM | 0.711 µM | – | – | – | – | – | 0.342 µM | –
11 | O=[N+]([O-])c1ccc(/C=N\Nc2ccc([N+](=O)[O-])cn2)cc1 | > 100 µM | > 100 µM | > 100 µM | > 100 µM | > 100 µM | > 100 µM | > 100 µM | > 100 µM | > 100 µM | > 100 µM | 82.8 µM | – | – | – | – | – | – | – | – | –
12 | N=C(N)c1ccc(-c2ccc(-c3cncc4ccccc34)s2)cc1F | – | – | – | – | 3.12 µM | – | – | – | – | – | 3.04 µM | – | – | – | 1.4 µM | – | – | – | 1.6 µM | –
13 | Nc1ccc(OCC(O)N2C(=O)c3ccccc3C2=O)cc1 (configuration not stated) | – | > 100 µM | – | > 100 µM | > 100 µM | > 100 µM | > 100 µM | > 100 µM | > 100 µM | > 100 µM | – | – | – | – | – | – | – | – | – | –
14 | C/C1=N\NC(=O)c2ccccc2C(=O)N/N=C(\C)c2cccc1n2.O=[N+]([O-])[O-].[Zn+2] | > 100 µM | > 100 µM | – | > 100 µM | – | – | > 100 µM | – | > 100 µM | – | > 100 µM | – | – | – | – | – | – | – | – | –
